Several values for one entry are separate records, joined by “and”; a condition that tells them apart may be missing. Identical values can stand only once. Like-named read-outs stand apart in the source and are kept apart here. Marks after values point to notes of the source that are not given here.
What was measured:
rats [1] = details: rat, in vivo
Protocol: (§1) A group of each 5 male and female rats was dosed once daily with the indicated compounds (see Table 9, below for compounds, applied doses and administration details) over 28 days.
(§2) Each dose group in the studies consisted of five rats per sex. Additional groups of each 5 male and female animals served as controls. Before starting the treatment period, animals, which were 62-64 days old when supplied, were acclimatized to the housing and environmental conditions for 7 days. All animals of the animal population were kept under the same constant temperature (20-24±3° C.) and the same constant humidity (30-70%). The animals of the animal population were fed ad libitum. The food to be used was essentially free of chemical or microbial contaminants. Drinking water was also offered ad libitum. […] The illumination period was 12 hours light followed by 12 hours darkness (12 hours light, from 6:00 to 18:00, and 12 hours darkness, from 18:00 to 6:00). […] The test substances (compounds in Table 9 were dosed and administered as described in the table above.
(§3) In the morning of day 7, 14, and 28, blood was taken from the retroorbital venous plexus from fasted anaesthetized animals. From each animal, 1 ml of blood was collected with EDTA as anticoagulant. The samples were centrifuged for generation of plasma. All plasma samples were covered with a N2 atmosphere and then stored at −80° C. until analysis.
(§4) For mass spectrometry-based metabolite profiling analyses plasma samples were extracted and a polar and a non-polar (lipid) fraction was obtained. For GC-MS analysis, the non-polar fraction was treated with methanol under acidic conditions to yield the fatty acid methyl esters. Both fractions were further derivatised with O-methyl-hydroxyamine hydrochloride and pyridine to convert Oxo-groups to O-methyloximes and subsequently with a silylating agent before analysis. In LC-MS analysis, both fractions were reconstituted in appropriate solvent mixtures. HPLC was performed by gradient elution on reversed phase separation columns.
(§5) Steroids and their metabolites were measured by online SPE-LC-MS (Solid phase extraction-LC-MS).
(§6) Following comprehensive analytical validation steps, the data for each analyte were normalized against data from pool samples. These samples were run in parallel through the whole process to account for process variability. The significance of treatment group values specific for sex, treatment duration and metabolite was determined by comparing means of the treated groups to the means of the respective untreated control groups using WELCH-test and quantified with treatment ratios versus control and p-values.

rats [2] = test: 28-day repeated dose study in rats with mass spectrometry-based plasma metabolite profiling (GC-MS, LC-MS, SPE-LC-MS); treatment ratios versus control
Protocol: as §1, §2, §3, §4, §5, §6

[3] = plasma, male rats, day 28, high dose, Table 8a direct tubular effect
[4] = plasma, male rats, day 28, high dose, Table 8b direct tubular effect
[5] = plasma, male rats, day 7, high dose, Table 2c glomerular-tubular defect
[6] = plasma, male rats, day 7, high dose, Table 2d glomerular-tubular defect
[7] = plasma, male rats, day 14, high dose, Table 2c glomerular-tubular defect
[8] = plasma, male rats, day 14, high dose, Table 2d glomerular-tubular defect
[9] = plasma, male rats, day 28, high dose, Table 2c glomerular-tubular defect
[10] = plasma, male rats, day 28, high dose, Table 2d glomerular-tubular defect

Cn1c(=O)c2c(ncn2C)n(C)c1=O [Caffeine]
Choline plasmalogen No 03, treatment ratio versus control (rats [1]): 1.25 * | Histidine, treatment ratio versus control (rats [1]): 1.29 * | Pantothenic acid, treatment ratio versus control (rats [1]): 1.23 * | Threonic acid, treatment ratio versus control (rats [1]): 1.46 * | Threonine, treatment ratio versus control (rats [1]): 1.58 * | Valine, treatment ratio versus control (rats [1]): 1.15 * | trans-4-Hydroxyproline, treatment ratio versus control (rats [1]): 1.23 * | 18-Hydroxy-11-deoxycorticosterone, treatment ratio versus control (rats [2]; rat, in vivo): 0.38 * | Choline plasmalogen No 03, treatment ratio versus control (rats [2]; rat, in vivo): 1.55 * and 1.56 * | Creatinine, treatment ratio versus control (rats [2]; rat, in vivo): 0.84 * | Glutamate, treatment ratio versus control (rats [2]; rat, in vivo): 0.55 * and 0.65 * and 0.7 * | Glycine, treatment ratio versus control (rats [2]; rat, in vivo): 1.5 * | Hippuric acid, treatment ratio versus control (rats [2]; rat, in vivo): 0.38 * | Lysophosphatidylcholine (C20:4), treatment ratio versus control (rats [2]; rat, in vivo): 0.85 * and 0.87 * and 0.89 * | Malate, treatment ratio versus control (rats [2]; rat, in vivo): 0.61 * and 0.55 * and 0.54 * | Proline, treatment ratio versus control (rats [2]; rat, in vivo): 1.23 | Sphingomyelin (d18:2, C16:0), treatment ratio versus control (rats [2]; rat, in vivo): 2.34* | Threonine, treatment ratio versus control (rats [2]; rat, in vivo): 1.2 * and 1.59 *

Oc1ccc(O)cc1 [Hydroquinone]
Leucine, treatment ratio versus control (rats [1]): 1.23 * | Lysophosphatidylethanolamine (C22:0), treatment ratio versus control (rats [1]): 1.26 * | Ornithine, treatment ratio versus control (rats [1]): 1.24 * | Glycerol-3-phosphate, polar fraction, treatment ratio versus control (rats [2]; [3]): 1.64 * | Isoleucine, treatment ratio versus control (rats [2]; [3]): 1.2 * | TAG No 02, treatment ratio versus control (rats [2]; [3]): 1.91 * | Threonine, treatment ratio versus control (rats [2]; [3]): 1.03 | 14-Methylhexadecanoic acid, treatment ratio versus control (rats [2]; [4]): 0.81 | 16-Methylheptadecanoic acid, treatment ratio versus control (rats [2]; [4]): 0.76 | 18-Hydroxy-11-deoxycorticosterone, treatment ratio versus control (rats [2]; [4]): 0.23 * | Citrate, treatment ratio versus control (rats [2]; [4]): 0.82 * | DAG (C18:1, C18:2), treatment ratio versus control (rats [2]; [4]): 0.43 * | Elaidic acid (C18:trans[9]1), treatment ratio versus control (rats [2]; [4]): 0.84 | Isopalmitic acid (C16:0), treatment ratio versus control (rats [2]; [4]): 0.62 | Ketoleucine, treatment ratio versus control (rats [2]; [4]): 0.75 * | Linolenic acid (C18:cis[9,12,15]3), treatment ratio versus control (rats [2]; [4]): 0.56 * | Lysophosphatidylcholine (C18:0), treatment ratio versus control (rats [2]; [4]): 0.99 * | Oleic acid (C18:cis[9]1), treatment ratio versus control (rats [2]; [4]): 0.75 * | Palmitoleic acid (C16:cis[9]1), treatment ratio versus control (rats [2]; [4]): 0.76 * | TAG (C16:0, C16:1), treatment ratio versus control (rats [2]; [4]): 0.4 * | trans-4-Hydroxyproline, treatment ratio versus control (rats [2]; [4]): 0.87 *

Tricresyl phosphate
Creatine, treatment ratio versus control (rats [2]; [5]): 1.16 * | Creatinine, treatment ratio versus control (rats [2]; [5]): 0.77^ | Glycerol-3-phosphate, polar fraction, treatment ratio versus control (rats [2]; [5]): 0.83 * | Lysophosphatidylcholine (C18:2), treatment ratio versus control (rats [2]; [5]): 1.19^ | Threonic acid, treatment ratio versus control (rats [2]; [5]): 1.32 * | 4-Hydroxy-3-methoxyphenylglycol (HMPG), treatment ratio versus control (rats [2]; [6]): 0.95^ | Cysteine, treatment ratio versus control (rats [2]; [6]): 0.44 * | Isopalmitic acid (C16:0), treatment ratio versus control (rats [2]; [6]): 0.84 * | Metanephrine, treatment ratio versus control (rats [2]; [6]): 0.43 * | Normetanephrine, treatment ratio versus control (rats [2]; [6]): 0.74 * | Creatine, treatment ratio versus control (rats [2]; [7]): 1.42 * | Creatinine, treatment ratio versus control (rats [2]; [7]): 0.74^ | Glycerol-3-phosphate, polar fraction, treatment ratio versus control (rats [2]; [7]): 0.89^ | Lysophosphatidylcholine (C18:2), treatment ratio versus control (rats [2]; [7]): 1.27 * | Threonic acid, treatment ratio versus control (rats [2]; [7]): 1.5 * | 4-Hydroxy-3-methoxyphenylglycol (HMPG), treatment ratio versus control (rats [2]; [8]): 0.93 * | Cysteine, treatment ratio versus control (rats [2]; [8]): 0.51 * | Isopalmitic acid (C16:0), treatment ratio versus control (rats [2]; [8]): 0.76 * | Metanephrine, treatment ratio versus control (rats [2]; [8]): 0.74 * | Normetanephrine, treatment ratio versus control (rats [2]; [8]): 0.71 * | Creatine, treatment ratio versus control (rats [2]; [9]): 1.11 * | Creatinine, treatment ratio versus control (rats [2]; [9]): 0.78 * | Glycerol-3-phosphate, polar fraction, treatment ratio versus control (rats [2]; [9]): 0.89^ | Lysophosphatidylcholine (C18:2), treatment ratio versus control (rats [2]; [9]): 1.15 * | Threonic acid, treatment ratio versus control (rats [2]; [9]): 1.53 * | 4-Hydroxy-3-methoxyphenylglycol (HMPG), treatment ratio versus control (rats [2]; [10]): 0.83 * | Cysteine, treatment ratio versus control (rats [2]; [10]): 0.55 * | Isopalmitic acid (C16:0), treatment ratio versus control (rats [2]; [10]): 0.62 * | Metanephrine, treatment ratio versus control (rats [2]; [10]): 0.76^ | Normetanephrine, treatment ratio versus control (rats [2]; [10]): 1.03^

From patent US20150011423A1, “MEANS AND METHODS FOR ASSESSING KIDNEY TOXICITY” (BASF SE, priority 2011, published 2015)
